Measurements from patent US12428415B2, “Matriptase 2 inhibitors and uses thereof” (Disc Medicine, Inc., priority 2018, dated 2025).

These compounds were tested against T1, Human Recombinant Matriptase 2 (Homo sapiens, UniProt Q8IU80) (assay: Matriptase 2 fluorescence based inhibition assay, Method A (100 mM TRIS pH 9, 1 mg/mL BSA)). Details: 1 uM; Assay Used A; read-out: Mar-2 % inhibition at 1 uM.
T1 construct: purchased Enzo Life Sciences (an in-house preparation was also used) ALX-201-752-1
T1 sequence (Q8IU80 1-811): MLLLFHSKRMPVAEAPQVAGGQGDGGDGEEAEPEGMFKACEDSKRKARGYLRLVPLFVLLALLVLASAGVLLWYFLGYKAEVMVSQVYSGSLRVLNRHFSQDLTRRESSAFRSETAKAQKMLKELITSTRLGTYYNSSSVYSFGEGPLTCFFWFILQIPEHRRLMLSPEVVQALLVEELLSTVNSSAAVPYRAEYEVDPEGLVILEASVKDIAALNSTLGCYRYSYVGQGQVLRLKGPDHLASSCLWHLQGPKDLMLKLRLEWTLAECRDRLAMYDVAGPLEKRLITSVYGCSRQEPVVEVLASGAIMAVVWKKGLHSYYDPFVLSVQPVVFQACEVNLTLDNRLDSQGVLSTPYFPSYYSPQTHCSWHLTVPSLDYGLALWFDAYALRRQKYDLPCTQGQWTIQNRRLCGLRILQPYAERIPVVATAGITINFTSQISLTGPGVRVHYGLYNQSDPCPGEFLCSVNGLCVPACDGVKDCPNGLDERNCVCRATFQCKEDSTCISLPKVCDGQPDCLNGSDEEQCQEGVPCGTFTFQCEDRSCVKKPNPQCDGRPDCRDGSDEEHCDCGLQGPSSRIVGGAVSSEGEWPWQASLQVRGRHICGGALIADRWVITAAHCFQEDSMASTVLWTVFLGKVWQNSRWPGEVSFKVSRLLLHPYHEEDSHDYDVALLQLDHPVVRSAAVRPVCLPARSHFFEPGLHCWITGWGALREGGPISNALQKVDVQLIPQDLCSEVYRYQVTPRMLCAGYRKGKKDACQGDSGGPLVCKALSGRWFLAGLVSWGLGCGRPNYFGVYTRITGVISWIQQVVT
Assay type: biochemical
In short: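 Enzyme (7 nM commercial or 15 nM in-house) preincubated 30 min with compound in 100 mM TRIS pH 9, 1 mg/mL BSA, 1% DMSO at 25° C. Boc-Gln-Ala-Arg-AMC substrate at 100 μM; fluorescence (Ex 360/Em 480 nm) read 60 min later. Screened at 1 and 10 μM; IC50 from variable-slope sigmoidal fit.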

Row | SMILES | inhibition at 1 µM [%]
1 | N=C(N)c1ccc2cc(C(=O)Nc3cccc(-c4ncc[nH]4)c3)n(Cc3ccc(C(N)=O)cc3)c2c1 [Compound I-137] | 25 to 50
2 | C[C@H](NC(=O)c1cc2ccc(C(=N)N)cc2n1Cc1ccc(C(N)=O)cc1)c1ccc(Cl)cc1 [Compound I-98] | 0 to 25
3 | N=C(NC(=O)OCc1ccccc1)c1ccc2cc(C(=O)Nc3cccc(N4CCCC4)c3)n(Cc3ccc(C(N)=O)cc3)c2c1 [Compound I-143] | 0 to 25
4 | N=C(N)c1ccc2cc(C(=O)NCc3cccc(CN)c3)n(CCc3ccccc3)c2c1 [Compound I-24] | 0 to 25
5 | N=C(N)c1ccc2cc(C(=O)Nc3cccc(N4CC[C@@H](F)C4)c3)n(Cc3ccc(C(N)=O)cc3)c2c1 [Compound I-140] | 0 to 25
6 | CSc1cccc(NC(=O)c2cc3ccc(C(=N)N)cc3n2Cc2ccc(C(N)=O)cc2)c1 [Compound I-68] | 0 to 25

Further lines, results first:

Row | inhibition at 1 µM [%] | SMILES
7 | 0 to 25 | N=C(N)c1ccc2cc(C(=O)NCC3CCCCC3)n(CCS(=O)(=O)c3ccccc3)c2c1 [Compound I-49]
8 | 0 to 25 | N=C(N)c1ccc2cc(C(=O)Nc3cc(F)cc(N4CCCC4)c3)n(Cc3ccc(C(N)=O)cc3)c2c1 [Compound I-108]
9 | 25 to 50 | COc1ccc(CCn2c(C(=O)N[C@H]3CC[C@H](N)CC3)cc3ccc(C(=N)N)cc32)cc1 [Compound I-32]

Same assay, conditions: at 1 uM; Assay Used = A; read-out: Mar-2 % inhibition at 1 uM

Row | SMILES | inhibition at 1 µM [%]
10 | N=C(N)c1ccc2cc(C(=O)N3CCCC(F)(F)C3)n(Cc3ccc(-c4ccccc4)cc3)c2c1 [Compound I-307] | 0 to 25
11 | N=C(N)c1ccc2cc(C(=O)N[C@@H]3c4ccccc4C[C@H]3O)n(Cc3ccc(C(N)=O)cc3)c2c1 [Compound I-203] | 0 to 25
12 | N=C(N)c1ccc2cc(C(=O)N[C@H]3CC[C@H](N)CC3)n(Cc3ccc(Oc4ccc(F)cc4)nc3)c2c1 [Compound I-246] | 50 to 75
13 | N=C(N)c1ccc2cc(C(=O)N3CCC(F)(F)CC3)n(Cc3ccc(C(F)(F)F)cc3)c2c1 [Compound I-283] | 0 to 25
14 | N=C(N)c1ccc2cc(C(=O)N3CCc4ccccc4C3)n(Cc3ccc(-c4ccccc4)cc3)c2c1 [Compound I-311] | 0 to 25
15 | N=C(N)c1ccc2cc(C(=O)N3CCC(F)(F)C3)n(CCS(=O)(=O)c3ccccc3)c2c1 [Compound I-342] | 0 to 25
16 | N=C(N)c1ccc2cc(C(=O)N3CCC[C@@H](CF)C3)n(Cc3cccc(C(N)=O)c3)c2c1 [Compound I-325] | 0 to 25
17 | N=C(N)c1ccc2cc(C(=O)N3CCC(F)(F)C3)n(Cc3ccc(C(F)(F)F)cc3)c2c1 [Compound I-285] | 0 to 25
18 | N=C(N)c1ccc2cc(C(=O)N3CCC(CCN)CC3)n(CCCN)c2c1 [Compound I-274] | 25 to 50
19 | CCOc1ccc(-c2cccc(Cn3c(C(=O)N[C@H]4CC[C@H](N)CC4)cc4ccc(C(=N)N)cc43)c2)cc1 [Compound I-239] | 25 to 50

Results, then the compound that gave them:

Row | inhibition at 1 µM [%] | SMILES
20 | 0 to 25 | CNC(=O)c1ccc(Cn2c(C(=O)NCC3CCCCC3)cc3ccc(C(=N)N)cc32)cc1 [Compound I-215, 6-Carbamimidoyl-N-(cyclohexylmethyl)-1-(4-(methylcarbamoyl)benzyl)-1H-indole-2-carboxamide]
21 | 0 to 25 | N=C(N)c1ccc2cc(C(=O)N3CCC(F)CC3)n(Cc3ccc(C(N)=O)cc3)c2c1 [Compound I-326]
22 | 25 to 50 | N=C(N)c1ccc2cc(C(=O)N[C@H]3CC[C@H](N)CC3)n(Cc3ccc(N)cc3)c2c1 [Compound I-261, 1-(4-Aminobenzyl)-N-((1r,4r)-4-aminocyclohexyl)-6-carbamimidoyl-1H-indole-2-carboxamide]
23 | 0 to 25 | N=C(N)c1ccc2cc(C(=O)NC3Cc4ccccc4C3)n(Cc3ccc(C(N)=O)cc3)c2c1 [Compound I-201]
24 | 0 to 25 | CN(CC1CCCCC1)C(=O)c1cc2ccc(C(=N)N)cc2n1Cc1ccc(C(N)=O)cc1 [Compound I-232, 6-Carbamimidoyl-1-(4-carbamoylbenzyl)-N-(cyclohexylmethyl)-N-methyl-1H-indole-2-carboxamide]
25 | 0 to 25 | C[C@@H](O)CNC(=O)c1cc2ccc(C(=N)N)cc2n1Cc1ccc(C(N)=O)cc1 [Compound I-207]
